Experimental data published in US8143263B2, “Therapeutic agents” (Astrazeneca AB, priority 2008, dated 2012).

Biological target: T1, recombinant human pancreatic GLK (Homo sapiens, UniProt P35557)
T1 sequence (P35557 1-465): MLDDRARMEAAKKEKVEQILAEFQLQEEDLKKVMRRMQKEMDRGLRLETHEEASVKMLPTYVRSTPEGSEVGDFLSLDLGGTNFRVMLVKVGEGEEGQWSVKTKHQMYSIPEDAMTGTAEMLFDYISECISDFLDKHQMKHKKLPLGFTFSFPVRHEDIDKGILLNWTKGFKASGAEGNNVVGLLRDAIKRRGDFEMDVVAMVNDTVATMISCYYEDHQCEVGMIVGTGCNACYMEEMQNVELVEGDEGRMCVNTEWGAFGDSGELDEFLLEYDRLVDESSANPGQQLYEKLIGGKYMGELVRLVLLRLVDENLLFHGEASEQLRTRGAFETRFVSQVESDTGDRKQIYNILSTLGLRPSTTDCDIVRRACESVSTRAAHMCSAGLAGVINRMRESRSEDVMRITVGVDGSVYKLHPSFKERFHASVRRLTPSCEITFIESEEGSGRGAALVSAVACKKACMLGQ
Assay: biochemical

Row | Structure (SMILES) | EC50 [nM]
1 | Cc1cnc(NC(=O)[C@H](COC2CCC2)Oc2ncnc3c2cnn3-c2ncccc2C(F)(F)F)cn1 [Example 137, (2S)-3-cyclobutyloxy-N-(5-methylpyrazin-2-yl)-2-[1-[3-(trifluoromethyl)pyridin-2-yl]pyrazolo[4,5-e]pyrimidin-4-yl]oxypropanamide] | 350
2 | COCCOCCC(Sc1ncnc2c1cnn2-c1ccccc1Cl)C(=O)Nc1ccc(C)cn1 (centres unmarked) [2-[1-(2-chlorophenyl)pyrazolo[4,5-e]pyrimidin-4-yl]sulfanyl-4-(2-methoxyethoxy)-N-(5-methyl-2-pyridyl)butanamide] | > 100000
3 | CC(=O)OCC[C@H](Oc1ncnc2c1cnn2-c1ncccc1Cl)C(=O)Nc1ccc(C)cn1 [Example 159, [(3S)-3-[1-(3-chloropyridin-2-yl)pyrazolo[4,5-e]pyrimidin-4-yl]oxy-4-[(5-methylpyridin-2-yl)amino]-4-oxobutyl]acetate] | 850
4 | CC(C)OCC(Oc1ncnc2c1cnn2-c1ccccc1Cl)C(=O)Nc1cc(C#N)ccn1 (centres unmarked) [2-[1-(2-chlorophenyl)pyrazolo[4,5-e]pyrimidin-4-yl]oxy-N-(4-cyano-2-pyridyl)-3-isopropoxy-propanamide] | > 100000
5 | COC[C@H](Oc1ncnc2c1cnn2-c1ncccc1Cl)C(=O)Nc1cnc(C)cn1 [Example 90, (2S)-2-(1-(3-chloropyridin-2-yl)-1H-pyrazolo[3,4-d]pyrimidin-4-yloxy)-3-methoxy-N-(5-methylpyrazin-2-yl)propanamide] | 5400
6 | Cc1ccc(NC(=O)[C@H](CCN(C)C)Oc2ncnc3c2cnn3-c2ccccc2Cl)nc1 [Example 47, (2S)-2-{[1-(2-chlorophenyl)-1H-pyrazolo[3,4-d]pyrimidin-4-yl]oxy}-4-(dimethylamino)-N-(5-methylpyridin-2-yl)butanamide] | 1000
7 | CCCCCCC(Sc1ncnc2c1cnn2-c1ccccc1Cl)C(=O)Nc1ccon1 (centres unmarked) [Example 64, 2-{[1-(2-chlorophenyl)-1H-pyrazolo[3,4-d]pyrimidin-4-yl]thio}-N-isoxazol-3-yloctanamide] | 10000
8 | COC[C@H](Oc1ncnc2c1cnn2-c1ccccc1)C(=O)Nc1ccc(C)cn1 [Example 107, (S)-3-Methoxy-N-(5-methylpyridin-2-yl)-2-(1-phenyl-1H-pyrazolo[3,4-d]pyrimidin-4-yloxy)propanamide] | 3600
9 | Cc1cccnc1NC(=O)[C@H](COC(C)C)Oc1ncnc2c1cnn2-c1ncccc1Cl [(2S)-2-[1-(3-chloro-2-pyridyl)pyrazolo[4,5-e]pyrimidin-4-yl]oxy-3-isopropoxy-N-(3-methyl-2-pyridyl)propanamide] | > 100000
10 | C[C@H](CO)OC[C@H](Oc1ncnc2c1cnn2-c1c(Cl)cccc1C#N)C(=O)Nc1ccc(C#N)cn1 [Example 251, (2S)-2-[1-(2-chloro-6-cyano-phenyl)pyrazolo[3,4-d]pyrimidin-4-yl]oxy-N-(5-cyano-2-pyridyl)-3-[(1R)-2-hydroxy-1-methyl-ethoxy]propanamide] | 350
11 | CC(C)OC[C@H](Oc1ncnc2c1cnn2-c1ncccc1Cl)C(=O)Nc1nc(C#N)cs1 [Example 127h, (2S)-2-[1-(3-chloro-2-pyridyl)pyrazolo[4,5-e]pyrimidin-4-yl]oxy-N-(4-cyanothiazol-2-yl)-3-isopropoxy-propanamide] | 6400
12 | COCC[C@H](Oc1ncnc2c1cnn2-c1ccccc1OC)C(=O)Nc1nc(C)cs1 [Example 37, (S)-4-methoxy-2-{[1-(2-methoxyphenyl)-1H-pyrazolo[3,4-d]pyrimidin-4-yl]oxy}-N-(4-methyl-1,3-thiazol-2-yl)butanamide] | 1300
13 | CCOC[C@H](Oc1ncnc2c1cnn2-c1ncccc1Cl)C(=O)Nc1ccc(F)cn1 [Example 127d, (2S)-2-[1-(3-chloro-2-pyridyl)pyrazolo[4,5-e]pyrimidin-4-yl]oxy-3-ethoxy-N-(5-fluoro-2-pyridyl)propanamide] | 670
14 | COCCC(Oc1ncnc2c1cnn2-c1ccccc1OC)C(=O)Nc1nc(C)cs1 (centres unmarked) [Example 35, 4-Methoxy-2-{[1-(2-methoxyphenyl)-1H-pyrazolo[3,4-d]pyrimidin-4-yl]oxy}-N-(4-methyl-1,3-thiazol-2-yl)butanamide] | 2100
15 | COCC[C@@H](Oc1ncnc2c1cnn2-c1cccc(C)c1)C(=O)Nc1ccc(C)cn1 [Example 32, (R)-4-Methoxy-2-{[1-(3-methylphenyl)-1H-pyrazolo[3,4-d]pyrimidin-4-yl]oxy}-N-(5-methylpyridin-2-yl)butanamide] | ≥ 100000
16 | COCC[C@@H](Oc1ncnc2c1cnn2-c1ccccc1OC)C(=O)Nc1ccc(C)cn1 [Example 23, (R)-4-Methoxy-2-{[1-(2-methoxyphenyl)-1H-pyrazolo[3,4-d]pyrimidin-4-yl]oxy}-N-(5-methylpyridin-2-yl)butanamide] | ≥ 100000

Row | Structure (SMILES) | EC50 [nM]
17 | Cc1ccnc(NC(=O)C(COC(C)C)Oc2ncnc3c2cnn3-c2ccccc2Cl)c1 (centres unmarked) [Example 116, 2-[1-(2-chlorophenyl)pyrazolo[4,5-e]pyrimidin-4-yl]oxy-3-isopropoxy-N-(4-methyl-2-pyridyl)propanamide] | 2300
18 | CCCCC(Oc1ncnc2c1cnn2-c1ccccc1Cl)C(=O)Nc1ccc(C)cn1 (centres unmarked) [Example 38, 2-{[1-(2-chlorophenyl)-1H-pyrazolo[3,4-d]pyrimidin-4-yl]oxy}-N-(5-methylpyridin-2-yl)hexanamide] | 20
19 | COCCC(Oc1ncnc2c1cnn2-c1cccc(OC)c1)C(=O)Nc1ccc(C)cn1 (centres unmarked) [Example 13, 4-methoxy-2-{[1-(3-methoxyphenyl)-1H-pyrazolo[3,4-d]pyrimidin-4-yl]oxy}-N-(5-methylpyridin-2-yl)butanamide] | 1400
20 | COC[C@@H](C)OC[C@H](Oc1ncnc2c1cnn2-c1ncccc1Cl)C(=O)Nc1ccc(C)cn1 [Example 154, (2S)-2-(1-(3-chloropyridin-2-yl)-1H-pyrazolo[3,4-d]pyrimidin-4-yloxy)-3-((R)-1-methoxypropan-2-yloxy)-N-(5-methylpyridin-2-yl)propanamide] | 1200
21 | Cc1ccc(NC(=O)[C@H](COC[C@H](C)O)Oc2ncnc3c2cnn3-c2ncccc2Cl)nc1 [Example 204, (2S)-2-(1-(3-chloropyridin-2-yl)-1H-pyrazolo[3,4-d]pyrimidin-4-yloxy)-3-((S)-2-hydroxypropoxy)-N-(5-methylpyridin-2-yl)propanamide] | 1300
22 | C[C@@H](CO)OC[C@H](Oc1ncnc2c1cnn2-c1ncccc1Cl)C(=O)Nc1ccc(Cl)cn1 [Example 193, (2S)—N-(5-chloropyridin-2-yl)-2-(1-(3-chloropyridin-2-yl)-1H-pyrazolo[3,4-d]pyrimidin-4-yloxy)-3-((S)-1-hydroxypropan-2-yloxy)propanamide] | 3300
23 | CCCCCCC(Sc1ncnc2c1cnn2-c1ccccc1Cl)C(=O)Nc1nc(C)cs1 (centres unmarked) [Example 63, 2-{[1-(2-chlorophenyl)-1H-pyrazolo[3,4-d]pyrimidin-4-yl]thio}-N-(4-methyl-1,3-thiazol-2-yl)octanamide] | > 4500
24 | COC[C@@H](Oc1ncnc2c1cnn2-c1ccccc1Cl)C(=O)Nc1ccc(C)cn1 [Example 88, (2R)-2-(1-(2-chlorophenyl)-1H-pyrazolo[3,4-d]pyrimidin-4-yloxy)-3-methoxy-N-(5-methylpyridin-2-yl)propanamide] | 5100
25 | Cc1ccc(NC(=O)[C@H](COC(C)C)Oc2ncnc3c2cnn3-c2ncccc2C)nc1 [Example 125, (2S)-3-Isopropoxy-N-(5-methylpyridin-2-yl)-2-(1-(3-methylpyridin-2-yl)-1H-pyrazolo[3,4-d]pyrimidin-4-yloxy)propanamide] | 310
26 | COCC[C@H](Oc1ncnc2c1cnn2-c1cccc(OC)c1)C(=O)Nc1ccc(C)cn1 [Example 15, (S)-4-methoxy-2-{[1-(3-methoxyphenyl)-1H-pyrazolo[3,4-d]pyrimidin-4-yl]oxy}-N-(5-methylpyridin-2-yl)butanamide] | 2700
27 | Cc1cnc(NC(=O)[C@H](COC(C)C)Oc2ncnc3c2cnn3-c2ccccc2Cl)s1 [Example 111a, (2S)-2-[1-(2-chlorophenyl)pyrazolo[4,5-e]pyrimidin-4-yl]oxy-3-isopropoxy-N-(5-methylthiazol-2-yl)propanamide] | 210
28 | O=C(Nc1ccc(F)cn1)[C@H](COCCO)Oc1ncnc2c1cnn2-c1c(F)cccc1Cl [Example 244, (2S)-2-[1-(2-chloro-6-fluoro-phenyl)pyrazolo[3,4-d]pyrimidin-4-yl]oxy-N-(5-fluoro-2-pyridyl)-3-(2-hydroxyethoxy)propanamide] | 330
29 | Cc1cnc(NC(=O)[C@@H](Oc2ncnc3c2cnn3-c2ncccc2Cl)C(C)C)cn1 [Example 94, (2S)-2-(1-(3-chloropyridin-2-yl)-1H-pyrazolo[3,4-d]pyrimidin-4-yloxy)-3-methyl-N-(5-methylpyrazin-2-yl)butanamide] | 9200
30 | CCC(Oc1ncnc2c1cnn2-c1ccccc1OC)C(=O)Nc1ccc(C)cn1 (centres unmarked) [Example 42, 2-{[1-(2-Methoxyphenyl)-1H-pyrazolo[3,4-d]pyrimidin-4-yl]oxy}-N-(5-methylpyridin-2-yl)butanamide] | 410
31 | O=C(Nc1ccccn1)[C@H](CN1CC(O)C1)Oc1ncnc2c1cnn2-c1c(F)cccc1Cl [Example 222, (2S)-2-[1-(2-chloro-6-fluoro-phenyl)pyrazolo[3,4-d]pyrimidin-4-yl]oxy-3-(3-hydroxyazetidin-1-yl)-N-(2-pyridyl)propanamide] | 140
32 | Cc1ccc(NC(=O)[C@H](COC(C)C)Oc2ncnc3c2cnn3-c2ccncc2C)nc1 [Example 135, (2S)—N-(5-methylpyridin-2-yl)-2-[1-(3-methylpyridin-4-yl)pyrazolo[4,5-e]pyrimidin-4-yl]oxy-3-propan-2-yloxypropanamide] | 5900
